According to patent US8008258B2, “Cop 1 for treatment of inflammatory bowel diseases” (Yeda Research and Development Co. Ltd., priority 2003, dated 2011):
Marks after values point to notes of the source that are not given here.

Assays:
[1] = test system: TNF-α secretion by spleen and MLN cells; assay: TNF-α secretion by spleen and MLN cells (ELISA); format: cell-based, mice
Experimental: FIGS. 5A-5C show the effect of GA on TNF-α secretion in different mouse strains. The responses of normal mice, colitis-induced mice, and colitis-induced mice treated with GA orally or parenterally daily are compared in the BALB/c (FIG. 5A), (SJL/JxBALB/c)F1 (FIG. 5B), and SJL/J (FIG. 5C) strains. Cells from spleens and mesenteric lymph nodes (MLN) were cultured, 7 days after disease induction, with immobilized anti-CD3 (5 μg/ml). After 24 hours, supernatants from six culture wells were pooled and TNF-α was measured by ELISA in duplicates. Results are expressed as TNF-α concentration (pg/ml±SD) and represent one of two similar experiments, using pooled cells from 3-5 mice in each group. # Indicates significant increase in TNF-α in colitic mice in comparison to normal mice. * Indicates significant decrease in TNF-α induced by GA treatment in comparison to untreated colitis induced mice.
Reactivity assays. Spleens and mesenteric lymph nodes (MLN) cells (0.5×10^6 cell/well) were cultured with either GA (50 μg/ml), colon extract (200 μg/ml), immobilized anti-CD3 (5 μg/ml), or PBS control, in a final volume of 250 μl/well (6 wells for each antigen). For proliferation assay, cells were cultured in RPMI 1640 with 10% FCS, pulsed with 1 μCi of [3H] thymidine after 48 h incubation, and harvested 12 h later. For cytokine (TNF-α and TGF-β) assay, cells were cultured in serum-free medium (DCCM-1), supernatants were collected after 72 h, and tested for the cytokines by ELISA using mAbs pairs (R&D Systems, Minneapollis, Minn.) according to the manufacturer's instruction.

TNBS-induced colitis [2] = assay: TNBS-induced colitis in (SJL/JxBALB/c)F1 mice, various GA treatment modes; format: in vivo; conditions: for Decrease in the total macroscopic score versus untreated mice: 5 days after disease induction; for Decrease in the total macroscopic damage versus untreated mice: fed with GA
Experimental: (§1) Induction of cholitis in mice. TNBS-colitis was induced by rectal instillation of 2,4,6-trinitrobenzene sulfonic acid 5% (w/v), mixed with an equal volume of ethanol, into anesthetized mice (100 μl/mouse). Each treatment group included 6-12 mice. Mice that died before day 4 were considered as treatment casualties and were not taken into consideration.
Assessment of colitis. Weight changes and survival were monitored daily. […]
(§2) Macroscopic colonic scoring. Gross colonic damage was graded according to Reuter et al. (1996), using the combined values of the four standard macroscopic parameters: degree of colonic ulcerations (scale from 0—completely normal, to 10—most severe); intestinal and peritoneal adhesions (0 to 2); diarrhea (0 to 1); and thickness (0 to 1). The total score is the arithmetic sum of the four scores. The evaluation was performed in a blind procedure.
(§3) Microscopic scoring. Proximal, medial, and distal portions of colon were fixed in 10% phosphate-buffered formalin. Paraffin-embedded sections were stained with hematoxylin and eosin. The degree of histological damage and inflammation was graded according to Elson et al. (1996) using the combined values of the four microscopic parameters: extent (scale from 0—completely normal, to 2—involving more than one segment); inflammation (0—none to 3—severe); damage (0 to 3—severe transmural); and regeneration (0—complete re-eptihelization to 3—none). The total score is the arithmetic sum of the four scores. The evaluation was performed in a blind procedure.
(§4) Oral treatment—250 μg/day in PBS, fed by gastric intubation with an 18-gauge stainless steel feeding needle. Unless otherwise stated, feedings were performed on days-7, -5, -3, -1, 0, 2, 4 and 6, relative to the day of TNBS instillation. […]
(§5) To explore whether the beneficial effect of GA on TNBS-induced colitis is restricted to oral administration in the BALB/c strain or represents a more general effect, we studied the ability of GA administered by different routes and dosages to inhibit TNBS-induced colitis in two additional strains of mice.

TNBS-induced colitis [3] = assay: TNBS-induced colitis in SJL/J mice, various GA treatment modes; format: in vivo; parameters: key to Macroscopic scoring of colon damage: Ulceration (max 10): 0 = completely normal, 10 = most severe ulceration; key to Macroscopic scoring of colon damage: Adhesion (max 2): adhesion score, 0 to 2; key to Macroscopic scoring of colon damage: Diarrhea (max 1): diarrhea score, 0 to 1; key to Macroscopic scoring of colon damage: Thickness (max 1): thickness score, 0 to 1; conditions: for Decrease in the total histological score: statistically insignificant; for Macroscopic scoring of colon damage: Adhesion (max 2) / Macroscopic scoring of colon damage: Diarrhea (max 1) / Macroscopic scoring of colon damage: Thickness (max 1) / Macroscopic scoring of colon damage: Total Score (max 14) / Macroscopic scoring of colon damage: Ulceration (max 10): scoring 5 days after disease induction
Experimental: as §1
Assessment of colitis. Weight changes and survival were monitored daily. Five to eight days following TNBS instillation, mice were sacrificed and macroscopic as well as microscopic colonic damage was evaluated.
as §2, §3, §4, §5

[4] = GA daily injections from day −7
[5] = scoring 5 days after disease induction, GA injected daily (from day −7), 2.5 mg/mouse SC
[6] = scoring 5 days after disease induction, GA injected daily (from day −14), 2.5 mg/mouse SC
[7] = scoring 5 days after disease induction, GA injected once day −14, 5 mg/mouse SC in ICFA
[8] = scoring 5 days after disease induction, GA oral every other day (from day −7), 0.25 mg, 8 feedings
[9] = scoring 11 days after disease induction, GA injected daily (from day −7), 2.5 mg/mouse SC
[10] = scoring 11 days after disease induction, GA injected daily (from day −14), 2.5 mg/mouse SC
[11] = scoring 11 days after disease induction, GA injected once day −14, 5 mg/mouse SC in ICFA
[12] = scoring 11 days after disease induction, GA oral every other day (from day −7), 0.25 mg, 8 feedings
[13] = GA injected daily (from day −7), 2.5 mg/mouse SC
[14] = GA oral every other day (from day −7), 0.25 mg, 8 feedings

## glatiramer acetate [GA]
[1]; SJL/J mice parenterally treated daily with GA
  Effect of GA treatment on TNF-α levels: drastic decrease in TNF-α levels
[1]; all strains, both spleens and MLN, all instances except MLN of SJL/J mice treated orally with GA
  Effect of GA treatment on TNF-α secretion in response to anti-CD3: substantial reduction in TNF-α
[1]; in vitro stimulation of cells by GA (50 μg/ml)
  TNF-α secretion on in vitro stimulation: did not result in secretion of TNF-α
TNBS-induced colitis [2]; [4]
  Decrease in the total macroscopic score versus untreated mice: 3.5 fold
TNBS-induced colitis [2]; GA daily injections from day −14
  Decrease in the total macroscopic score versus untreated mice: 4.6 fold
TNBS-induced colitis [2]; GA injected daily (from day −7)
  Complete weight restoration: ≤ 6 days
TNBS-induced colitis [2]; GA injected daily (from day −7), 1 day after induction
  Weight loss (of original weight): 4%
TNBS-induced colitis [2]; daily injection of GA (starting both 7 and 14 days before disease induction)
  Mortality: completely prevented mortality
TNBS-induced colitis [2]; daily injections (starting either 7 or 14 days before disease induction)
  Reduction in the histological score: 6.6 fold
TNBS-induced colitis [2]; daily-injected mice
  Inhibition of weight loss caused by TNBS colitis: major significant inhibition of weight loss
TNBS-induced colitis [2]; observed 5 days after TNBS inoculation
  Decrease in the total macroscopic damage versus untreated mice: 1.8 fold
TNBS-induced colitis [2]; observed 11 days after TNBS inoculation
  Decrease in the total macroscopic damage versus untreated mice: 1.7 fold
TNBS-induced colitis [2]; oral treatment
  Reduction in the histological score: 1.8 fold
TNBS-induced colitis [2]; oral treatment with GA, by day 8
  Mortality rate: 30%
TNBS-induced colitis [2]; orally-treated mice
  Inhibition of weight loss caused by TNBS colitis: modest, statistically insignificant, inhibition of weight loss
TNBS-induced colitis [2]; [5]
  Macroscopic scoring of colon damage: Adhesion (max 2): 0.8
  Macroscopic scoring of colon damage: Diarrhea (max 1): 0.4
  Macroscopic scoring of colon damage: Thickness (max 1): 0.1
  Macroscopic scoring of colon damage: Total Score (max 14): 2.7*
  Macroscopic scoring of colon damage: Ulceration (max 10): 1.4
TNBS-induced colitis [2]; [6]
  Macroscopic scoring of colon damage: Adhesion (max 2): 0.4
  Macroscopic scoring of colon damage: Diarrhea (max 1): 0.2
  Macroscopic scoring of colon damage: Thickness (max 1): 0.1
  Macroscopic scoring of colon damage: Total Score (max 14): 2.1*
  Macroscopic scoring of colon damage: Ulceration (max 10): 1.4
TNBS-induced colitis [2]; [7]
  Macroscopic scoring of colon damage: Adhesion (max 2): 1.4
  Macroscopic scoring of colon damage: Diarrhea (max 1): 0.3
  Macroscopic scoring of colon damage: Thickness (max 1): 0.3
  Macroscopic scoring of colon damage: Total Score (max 14): 6.4
  Macroscopic scoring of colon damage: Ulceration (max 10): 4.4
TNBS-induced colitis [2]; [8]
  Macroscopic scoring of colon damage: Adhesion (max 2): 1.0
  Macroscopic scoring of colon damage: Diarrhea (max 1): 0.3
  Macroscopic scoring of colon damage: Thickness (max 1): 0.3
  Macroscopic scoring of colon damage: Total Score (max 14): 5.4
  Macroscopic scoring of colon damage: Ulceration (max 10): 3.8
TNBS-induced colitis [2]; [9]
  Macroscopic scoring of colon damage: Adhesion (max 2): 0.0
  Macroscopic scoring of colon damage: Diarrhea (max 1): 0.0
  Macroscopic scoring of colon damage: Thickness (max 1): 0.0
  Macroscopic scoring of colon damage: Ulceration (max 10): 0.1
TNBS-induced colitis [2]; [10]
  Macroscopic scoring of colon damage: Adhesion (max 2): 0.0
  Macroscopic scoring of colon damage: Diarrhea (max 1): 0.0
  Macroscopic scoring of colon damage: Thickness (max 1): 0.0
  Macroscopic scoring of colon damage: Ulceration (max 10): 0.1
TNBS-induced colitis [2]; [11]
  Macroscopic scoring of colon damage: Adhesion (max 2): 1.0
  Macroscopic scoring of colon damage: Diarrhea (max 1): 0.2
  Macroscopic scoring of colon damage: Thickness (max 1): 0.2
  Macroscopic scoring of colon damage: Total Score (max 14): 3.7
  Macroscopic scoring of colon damage: Ulceration (max 10): 2.3
TNBS-induced colitis [2]; [12]
  Macroscopic scoring of colon damage: Adhesion (max 2): 0.6
  Macroscopic scoring of colon damage: Diarrhea (max 1): 0.1
  Macroscopic scoring of colon damage: Thickness (max 1): 0.2
  Macroscopic scoring of colon damage: Total Score (max 14): 3.2
  Macroscopic scoring of colon damage: Ulceration (max 10): 2.3
TNBS-induced colitis [2]; single injection of GA as a depot dose in ICFA
  Effect on macroscopic scores versus untreated controls: small and statistically insignificant
TNBS-induced colitis [3]; [4]
  Reduction in macroscopic score versus untreated control: 2.7 fold
TNBS-induced colitis [3]; daily injection of GA
  Mortality (succumbed): 8%
TNBS-induced colitis [3]; daily-injected mice
  Inhibition of weight loss caused by TNBS colitis: major significant inhibition of weight loss
TNBS-induced colitis [3]; feeding
  Decrease in the total histological score: 0.5 points
TNBS-induced colitis [3]; injection
  Decrease in the total histological score: 1.8 points
TNBS-induced colitis [3]; oral treatment with GA
  Decrease in the total macroscopic score versus untreated mice: 1.7 Points
TNBS-induced colitis [3]; oral treatment with GA, by day 5
  Mortality rate: 18%
TNBS-induced colitis [3]; orally-treated mice
  Inhibition of weight loss caused by TNBS colitis: modest, statistically insignificant, inhibition of weight loss
TNBS-induced colitis [3]; [13]
  Macroscopic scoring of colon damage: Adhesion (max 2): 1.2
  Macroscopic scoring of colon damage: Diarrhea (max 1): 0.5
  Macroscopic scoring of colon damage: Thickness (max 1): 0.5
  Macroscopic scoring of colon damage: Total Score (max 14): 5.7*
  Macroscopic scoring of colon damage: Ulceration (max 10): 3.5
TNBS-induced colitis [3]; [14]
  Macroscopic scoring of colon damage: Adhesion (max 2): 1.8
  Macroscopic scoring of colon damage: Diarrhea (max 1): 0.9
  Macroscopic scoring of colon damage: Thickness (max 1): 0.9
  Macroscopic scoring of colon damage: Total Score (max 14): 10.7
  Macroscopic scoring of colon damage: Ulceration (max 10): 7.1
